Experimental data reported in patent US11497752B2, “Compounds and uses thereof” (Foghorn Therapeutics Inc., priority 2018, dated 2022).

Key:
BRM = BRM (Homo sapiens, UniProt P51531); test: ATPase catalytic activity of BRM (ADP-Glo in vitro biochemical assay)
BRG-1 = BRG-1 (Homo sapiens, UniProt P51532); test: ATPase catalytic activity of BRG-1 (ADP-Glo in vitro biochemical assay)
BRG-1, sequence (P51532 whole entry): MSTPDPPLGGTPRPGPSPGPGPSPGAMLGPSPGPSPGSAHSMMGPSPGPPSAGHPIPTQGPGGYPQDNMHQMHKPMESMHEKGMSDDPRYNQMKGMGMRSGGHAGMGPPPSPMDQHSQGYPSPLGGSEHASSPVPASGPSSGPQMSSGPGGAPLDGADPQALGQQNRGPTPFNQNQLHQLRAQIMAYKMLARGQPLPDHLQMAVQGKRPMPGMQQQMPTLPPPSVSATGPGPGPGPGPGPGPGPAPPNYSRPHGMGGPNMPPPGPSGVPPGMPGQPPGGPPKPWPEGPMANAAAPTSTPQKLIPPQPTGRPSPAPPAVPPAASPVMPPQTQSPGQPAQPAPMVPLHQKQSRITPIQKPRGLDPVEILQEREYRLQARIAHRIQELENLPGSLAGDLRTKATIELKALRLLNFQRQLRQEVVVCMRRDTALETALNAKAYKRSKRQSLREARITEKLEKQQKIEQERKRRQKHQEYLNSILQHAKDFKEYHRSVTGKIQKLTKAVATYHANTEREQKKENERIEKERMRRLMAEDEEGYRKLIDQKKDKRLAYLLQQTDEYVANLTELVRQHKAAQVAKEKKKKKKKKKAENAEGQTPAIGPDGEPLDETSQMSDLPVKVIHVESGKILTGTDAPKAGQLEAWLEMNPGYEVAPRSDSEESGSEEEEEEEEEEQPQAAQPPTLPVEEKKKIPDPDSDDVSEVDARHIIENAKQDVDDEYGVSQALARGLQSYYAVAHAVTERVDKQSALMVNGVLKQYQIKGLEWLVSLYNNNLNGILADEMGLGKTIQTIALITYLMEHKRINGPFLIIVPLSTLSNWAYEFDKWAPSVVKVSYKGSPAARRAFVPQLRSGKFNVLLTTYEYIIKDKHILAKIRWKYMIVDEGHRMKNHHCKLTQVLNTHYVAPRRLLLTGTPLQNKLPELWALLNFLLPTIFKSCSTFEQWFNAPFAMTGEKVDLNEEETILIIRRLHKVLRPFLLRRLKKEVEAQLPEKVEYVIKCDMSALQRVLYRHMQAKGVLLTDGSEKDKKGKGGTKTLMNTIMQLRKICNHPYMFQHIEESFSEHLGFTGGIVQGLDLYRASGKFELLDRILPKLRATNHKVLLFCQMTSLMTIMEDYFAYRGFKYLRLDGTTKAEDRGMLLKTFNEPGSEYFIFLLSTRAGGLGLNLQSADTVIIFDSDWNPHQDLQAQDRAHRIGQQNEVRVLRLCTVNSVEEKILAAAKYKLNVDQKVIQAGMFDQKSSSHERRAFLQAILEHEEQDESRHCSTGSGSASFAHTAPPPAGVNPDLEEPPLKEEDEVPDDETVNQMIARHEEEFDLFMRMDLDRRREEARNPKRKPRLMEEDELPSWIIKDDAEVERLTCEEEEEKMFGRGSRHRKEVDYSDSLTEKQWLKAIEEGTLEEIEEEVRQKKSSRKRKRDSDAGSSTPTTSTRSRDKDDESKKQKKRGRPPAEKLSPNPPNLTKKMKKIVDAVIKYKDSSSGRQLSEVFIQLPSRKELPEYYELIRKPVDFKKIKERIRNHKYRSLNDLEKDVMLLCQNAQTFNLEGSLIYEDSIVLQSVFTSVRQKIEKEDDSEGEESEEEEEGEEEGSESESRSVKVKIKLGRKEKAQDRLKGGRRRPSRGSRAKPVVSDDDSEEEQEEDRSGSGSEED

BRM, sequence (P51531 whole entry): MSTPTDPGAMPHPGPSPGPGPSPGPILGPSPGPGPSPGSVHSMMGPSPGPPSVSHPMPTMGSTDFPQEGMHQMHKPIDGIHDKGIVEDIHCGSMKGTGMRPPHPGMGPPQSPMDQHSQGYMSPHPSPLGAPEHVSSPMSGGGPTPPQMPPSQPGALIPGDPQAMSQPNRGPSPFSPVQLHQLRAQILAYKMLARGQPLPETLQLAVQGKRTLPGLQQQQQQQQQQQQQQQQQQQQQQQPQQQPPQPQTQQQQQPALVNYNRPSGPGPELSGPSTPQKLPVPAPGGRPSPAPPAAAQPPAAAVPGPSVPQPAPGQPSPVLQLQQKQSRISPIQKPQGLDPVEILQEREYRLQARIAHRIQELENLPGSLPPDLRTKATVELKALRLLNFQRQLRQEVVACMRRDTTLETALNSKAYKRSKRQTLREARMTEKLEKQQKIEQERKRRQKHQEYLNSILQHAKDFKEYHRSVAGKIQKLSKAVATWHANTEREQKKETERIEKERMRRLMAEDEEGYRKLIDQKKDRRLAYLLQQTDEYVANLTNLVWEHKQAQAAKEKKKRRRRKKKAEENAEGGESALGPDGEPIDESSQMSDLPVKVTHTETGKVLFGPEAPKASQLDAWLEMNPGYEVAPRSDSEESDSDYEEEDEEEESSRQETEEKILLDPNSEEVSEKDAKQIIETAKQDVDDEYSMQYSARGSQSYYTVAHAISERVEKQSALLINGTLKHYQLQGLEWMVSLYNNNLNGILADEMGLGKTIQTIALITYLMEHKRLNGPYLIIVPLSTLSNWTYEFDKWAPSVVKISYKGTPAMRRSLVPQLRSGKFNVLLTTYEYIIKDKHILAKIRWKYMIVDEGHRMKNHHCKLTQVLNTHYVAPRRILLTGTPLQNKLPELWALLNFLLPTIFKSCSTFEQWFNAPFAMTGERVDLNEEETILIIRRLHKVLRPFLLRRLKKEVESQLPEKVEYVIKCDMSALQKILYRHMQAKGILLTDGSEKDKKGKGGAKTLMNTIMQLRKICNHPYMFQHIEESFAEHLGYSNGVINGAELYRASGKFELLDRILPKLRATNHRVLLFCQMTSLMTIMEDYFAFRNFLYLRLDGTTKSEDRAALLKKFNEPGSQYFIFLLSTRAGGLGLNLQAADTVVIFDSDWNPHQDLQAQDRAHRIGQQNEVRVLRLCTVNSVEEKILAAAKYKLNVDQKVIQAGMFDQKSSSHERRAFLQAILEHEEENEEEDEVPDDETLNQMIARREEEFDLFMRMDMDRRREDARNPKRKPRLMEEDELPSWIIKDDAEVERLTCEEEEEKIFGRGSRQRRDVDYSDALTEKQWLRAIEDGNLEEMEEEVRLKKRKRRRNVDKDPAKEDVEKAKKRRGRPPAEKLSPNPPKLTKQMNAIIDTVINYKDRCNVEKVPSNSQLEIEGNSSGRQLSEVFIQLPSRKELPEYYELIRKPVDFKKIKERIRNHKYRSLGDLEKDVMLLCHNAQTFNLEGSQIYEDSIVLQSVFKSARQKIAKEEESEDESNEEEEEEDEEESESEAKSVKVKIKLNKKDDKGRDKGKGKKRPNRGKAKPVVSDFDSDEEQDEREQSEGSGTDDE

With CC(=O)NCc1ccc(-c2cccc(-c3csc(NC(=O)CNC(=O)c4ccc(N)cc4)n3)c2)cc1 [Compound 123, N-(2-((4-(4′-(acetamidomethyl)-[1,1′-biphenyl]-3-yl)thiazol-2-yl)amino)-2-oxoethyl)-4-aminobenzamide] the IC50 (BRM) was 100 to 1000 nM, the “BRM Max % Inhibition” value (BRM; Table 6) was over 80% and the IC50 (BRG-1) was 100 to 1000 nM. For the same compound, the “BRG1 Max % Inhibition” value (BRG-1; Table 6) was over 80%.

With Nc1ccc(C(=O)NCC(=O)Nc2nc(-c3cccc(-c4cccc(O)c4)c3)cs2)cc1 [Compound 141, 4-amino-N-(2-((4-(3′-hydroxy-[1,1′-biphenyl]-3-yl)thiazol-2-yl)amino)-2-oxoethyl)benzamide] the IC50 (BRM) was under 100 nM, the “BRM Max % Inhibition” value (BRM; Table 6) was over 95% and the IC50 (BRG-1) was 100 to 1000 nM. For the same compound, the “BRG1 Max % Inhibition” value (BRG-1; Table 6) was over 95%.

Nc1ccc(C(=O)NCC(=O)Nc2nc(-c3cccc(CCc4ccncc4)c3)cs2)cc1 [Compound 218, 4-amino-N-[2-oxo-2-[[4-[3-[2-(4-pyridyl)ethyl]phenyl]thiazol-2-yl]amino]ethyl]benzamide] was tested, and the IC50 (BRM) was under 100 nM, the “BRM Max % Inhibition” value (BRM; Table 6) was over 95% and the IC50 (BRG-1) was 100 to 1000 nM. The “BRG1 Max % Inhibition” value (BRG-1; Table 6) was over 90%.

In the case of CC(OC1CCOCC1)c1cccc(-c2csc(NC(=O)CNC(=O)c3ccc(N)cc3)n2)c1 (centres unmarked) [Compound 235, 4-amino-N-[2-oxo-2-[[4-[3-(1-tetrahydropyran-4-yloxyethyl)phenyl]thiazol-2-yl]amino]ethyl]benzamide], the IC50 (BRM) is reported as 100 to 1000 nM, the “BRM Max % Inhibition” value (BRM; Table 6) is reported as over 90% and the IC50 (BRG-1) is reported as 100 to 1000 nM. For the same compound, the “BRG1 Max % Inhibition” value (BRG-1; Table 6) was over 70%.

In the case of CNCc1cc(-c2cccc(-c3csc(NC(=O)CNC(=O)c4ccc(N)cc4)n3)c2)ccn1 [Compound 196, 4-amino-N-[2-[[4-[3-[2-(methylaminomethyl)-4-pyridyl]phenyl]thiazol-2-yl]amino]-2-oxo-ethyl]benzamide], the IC50 (BRM) is reported as 100 to 1000 nM, the “BRM Max % Inhibition” value (BRM; Table 6) is reported as over 95% and the IC50 (BRG-1) is reported as 100 to 1000 nM. For the same compound, the “BRG1 Max % Inhibition” value (BRG-1; Table 6) was over 90%.

In the case of CNC(=O)C(C)(C)c1cc(-c2cccc(-c3csc(NC(=O)CNC(=O)c4ccc(N)cc4)n3)c2)ccn1 [Compound 226, 4-amino-N-[2-[[4-[3-[2-[1,1-dimethyl-2-(methylamino)-2-oxo-ethyl]-4-pyridyl]phenyl]thiazol-2-yl]amino]-2-oxo-ethyl]benzamide], the IC50 (BRM) is reported as under 100 nM, the “BRM Max % Inhibition” value (BRM; Table 6) is reported as over 95% and the IC50 (BRG-1) is reported as under 100 nM. For the same compound, the “BRG1 Max % Inhibition” value (BRG-1; Table 6) was over 95%.

In the case of Nc1ccc(C(=O)NCC(=O)Nc2nc(-c3ccc4c(c3)OCC4)cs2)cc1 [Compound 112, 4-amino-N-(2-((4-(2,3-dihydrobenzofuran-6-yl)thiazol-2-yl)amino)-2-oxoethyl)benzamide], the IC50 (BRM) is reported as 100 to 1000 nM, the “BRM Max % Inhibition” value (BRM; Table 6) is reported as over 90% and the IC50 (BRG-1) is reported as 100 to 1000 nM. For the same compound, the “BRG1 Max % Inhibition” value (BRG-1; Table 6) was over 80%.

Nc1ccc(C(=O)NCC(=O)Nc2nc(C3CCCN(c4cccnc4)C3)cs2)cc1 (centres unmarked) [Compound 173, 4-amino-N-(2-oxo-2-((4-(1-(pyridin-3-yl)piperidin-3-yl)thiazol-2-yl)amino)ethyl)benzamide] was tested, and the IC50 (BRM) was 100 to 1000 nM, the “BRM Max % Inhibition” value (BRM; Table 6) was over 90% and the IC50 (BRG-1) was 100 to 1000 nM. For the same compound, the “BRG1 Max % Inhibition” value (BRG-1; Table 6) was over 90%.

With CC(C)c1cc(-c2cccc(-c3csc(NC(=O)CNC(=O)c4ccc(N)cc4)n3)c2)ccn1 [Compound 207, 4-amino-N-[2-[[4-[3-(2-isopropyl-4-pyridyl)phenyl]thiazol-2-yl]amino]-2-oxo-ethyl]benzamide] the IC50 (BRM) was under 100 nM, the “BRM Max % Inhibition” value (BRM; Table 6) was over 95% and the IC50 (BRG-1) was under 100 nM. The “BRG1 Max % Inhibition” value (BRG-1; Table 6) was over 95%.

Cc1cccc(-c2csc(NC(=O)CNC(=O)c3cccc(S(=O)(=O)N(C)C)c3)n2)c1 [Compound 1, 3-(dimethylsulfamoyl)-N-[2-[[4-(m-tolyl)thiazol-2-yl]amino]-2-oxo-ethyl]benzamide] was tested, and the IC50 (BRM) was 1000 to 10000 nM, the “BRM Max % Inhibition” value (BRM; Table 5) was over 95% and the IC50 (BRG-1) was 1000 to 10000 nM. For the same compound, the “BRG1 Max % Inhibition” value (BRG-1; Table 5) was over 70%.

COc1ccc(C(=O)N[C@@H](CCSC)C(=O)Nc2nc(-c3ccccc3)cs2)cc1S(C)(=O)=O [Compound 20, 4-methoxy-N-[(1S)-3-methylsulfanyl-1-[(4-phenylthiazol-2-yl)carbamoyl]propyl]-3-methylsulfonyl-benzamide] was tested, and the IC50 (BRM) was over 10000 nM, the “BRM Max % Inhibition” value (BRM; Table 5) was over 70% and the IC50 (BRG-1) was over 10000 nM. The “BRG1 Max % Inhibition” value (BRG-1; Table 5) was over 60%.

For Nc1ccc(C(=O)NCC(=O)Nc2nc(-c3cncc(-c4ccncc4)c3)cs2)cc1 [Compound 208, 4-amino-N-[2-oxo-2-[[4-[5-(4-pyridyl)-3-pyridyl]thiazol-2-yl]amino]ethyl]benzamide], the IC50 (BRM) was 100 to 1000 nM, the “BRM Max % Inhibition” value (BRM; Table 6) was over 90% and the IC50 (BRG-1) was 100 to 1000 nM. For the same compound, the “BRG1 Max % Inhibition” value (BRG-1; Table 6) was over 80%.

For CN(C)CCNC(=O)Cc1cc(-c2cccc(-c3csc(NC(=O)CNC(=O)c4ccc(N)cc4)n3)c2)ccn1 [Compound 186, 4-amino-N-[2-[[4-[3-[2-[2-[2-(dimethylamino)ethylamino]-2-oxo-ethyl]-4-pyridyl]phenyl]thiazol-2-yl]amino]-2-oxo-ethyl]benzamide], the IC50 (BRM) was 100 to 1000 nM, the “BRM Max % Inhibition” value (BRM; Table 6) was over 95% and the IC50 (BRG-1) was 100 to 1000 nM. The “BRG1 Max % Inhibition” value (BRG-1; Table 6) was over 95%.

In the case of Nc1ccc(C(=O)NCC(=O)Nc2nc(-c3cccc(COC4CCOCC4)c3)cs2)cc1 [Compound 230, 4-amino-N-[2-oxo-2-[[4-[3-(tetrahydropyran-4-yloxymethyl)phenyl]thiazol-2-yl]amino]ethyl]benzamide], the IC50 (BRM) is reported as 100 to 1000 nM, the “BRM Max % Inhibition” value (BRM; Table 6) is reported as over 95% and the IC50 (BRG-1) is reported as 100 to 1000 nM. The “BRG1 Max % Inhibition” value (BRG-1; Table 6) was over 90%.

For CNC(=O)C(C)(C)n1ccc(-c2cccc(-c3csc(NC(=O)CNC(=O)c4ccc(N)cc4)n3)c2)n1 [Compound 213, 4-amino-N-[2-[[4-[3-[1-[1,1-dimethyl-2-(methylamino)-2-oxo-ethyl]pyrazol-3-yl]phenyl]thiazol-2-yl]amino]-2-oxo-ethyl]benzamide], the IC50 (BRM) was under 100 nM, the “BRM Max % Inhibition” value (BRM; Table 6) was over 95% and the IC50 (BRG-1) was under 100 nM. The “BRG1 Max % Inhibition” value (BRG-1; Table 6) was over 95%.

With COC(=O)Cc1cc(-c2cccc(-c3csc(NC(=O)CNC(=O)c4ccc(N)cc4)n3)c2)ccn1 [Compound 177, methyl 2-(4-(3-(2-(2-(4-aminobenzamido)acetamido)thiazol-4-yl)phenyl)pyridin-2-yl)acetate] the IC50 (BRM) was under 100 nM, the “BRM Max % Inhibition” value (BRM; Table 6) was over 95% and the IC50 (BRG-1) was under 100 nM. The “BRG1 Max % Inhibition” value (BRG-1; Table 6) was over 95%.

Cc1nnc(C(=O)NC(C)(C)c2cc(-c3cccc(-c4csc(NC(=O)CNC(=O)c5ccc(N)cc5)n4)c3)ccn2)o1 [Compound 215, N-[1-[4-[3-[2-[[2-[(4-aminobenzoyl)amino]acetyl]amino]thiazol-4-yl]phenyl]-2-pyridyl]-1-methyl-ethyl]-5-methyl-1,3,4-oxadiazole-2-carboxamide] was tested, and the IC50 (BRM) was 100 to 1000 nM, the “BRM Max % Inhibition” value (BRM; Table 6) was over 90% and the IC50 (BRG-1) was 100 to 1000 nM. The “BRG1 Max % Inhibition” value (BRG-1; Table 6) was over 90%.

With CN(C)C(=O)c1ccc(-c2cccc(-c3csc(NC(=O)CNC(=O)c4ccc(N)cc4)n3)c2)cc1 [Compound 137, 3′-(2-(2-(4-aminobenzamido)acetamido)thiazol-4-yl)-N,N-dimethyl-[1,1′-biphenyl]-4-carboxamide] the IC50 (BRM) was 100 to 1000 nM, the “BRM Max % Inhibition” value (BRM; Table 6) was over 90% and the IC50 (BRG-1) was 100 to 1000 nM. The “BRG1 Max % Inhibition” value (BRG-1; Table 6) was over 95%.

For NCc1cc(-c2cccc(-c3csc(NC(=O)CNC(=O)c4ccc(N)cc4)n3)c2)ccn1 [Compound 164, 4-amino-N-(2-((4-(3-(2-(aminomethyl)pyridin-4-yl)phenyl)thiazol-2-yl)amino)-2-oxoethyl)benzamide], the IC50 (BRM) was under 100 nM, the “BRM Max % Inhibition” value (BRM; Table 6) was over 95% and the IC50 (BRG-1) was under 100 nM. For the same compound, the “BRG1 Max % Inhibition” value (BRG-1; Table 6) was over 95%.

For CN(C)C(=O)c1cccc(-c2csc(NC(=O)CNC(=O)c3cccc(S(=O)(=O)N(C)C)c3)n2)c1 [Compound 37, 3-[2-[[2-[[3-(dimethylsulfamoyl)benzoyl]amino]acetyl]amino]thiazol-4-yl]-N,N-dimethyl-benzamide], the IC50 (BRM) was over 10000 nM, the “BRM Max % Inhibition” value (BRM; Table 5) was over 50% and the IC50 (BRG-1) was over 10000 nM. For the same compound, the “BRG1 Max % Inhibition” value (BRG-1; Table 5) was over 30%.

In the case of CNC(=O)c1cccc(-c2cccc(-c3csc(NC(=O)CNC(=O)c4ccc(N)cc4)n3)c2)c1 [Compound 144, 3-[3-[2-[[2-[(4-aminobenzoyl)amino]acetyl]amino]thiazol-4-yl]phenyl]-N-methyl-benzamide], the IC50 (BRM) is reported as 100 to 1000 nM, the “BRM Max % Inhibition” value (BRM; Table 6) is reported as over 95% and the IC50 (BRG-1) is reported as 100 to 1000 nM. For the same compound, the “BRG1 Max % Inhibition” value (BRG-1; Table 6) was over 95%.

NCc1cccc(-c2cccc(-c3csc(NC(=O)CNC(=O)c4ccc(N)cc4)n3)c2)c1 [Compound 135, 4-amino-N-(2-((4-(3′-(aminomethyl)-[1,1′-biphenyl]-3-yl)thiazol-2-yl)amino)-2-oxoethyl)benzamide] was tested, and the IC50 (BRM) was under 100 nM, the “BRM Max % Inhibition” value (BRM; Table 6) was over 95% and the IC50 (BRG-1) was under 100 nM. The “BRG1 Max % Inhibition” value (BRG-1; Table 6) was over 95%.

For CN1CCN(c2cccc(-c3csc(NC(=O)CNC(=O)c4ccc(N)cc4)n3)c2)CC1=O [Compound 204, 4-amino-N-[2-[[4-[3-(4-methyl-3-oxo-piperazin-1-yl)phenyl]thiazol-2-yl]amino]-2-oxo-ethyl]benzamide], the IC50 (BRM) was 100 to 1000 nM, the “BRM Max % Inhibition” value (BRM; Table 6) was over 80% and the IC50 (BRG-1) was 100 to 1000 nM. For the same compound, the “BRG1 Max % Inhibition” value (BRG-1; Table 6) was over 70%.

With CC(=O)N(C)c1cc(-c2cccc(-c3csc(NC(=O)CNC(=O)c4ccc(N)cc4)n3)c2)ccn1 [Compound 183, 4-amino-N-(2-((4-(3-(2-(N-methylacetamido)pyridin-4-yl)phenyl)thiazol-2-yl)amino)-2-oxoethyl)benzamide] the IC50 (BRM) was under 100 nM, the “BRM Max % Inhibition” value (BRM; Table 6) was over 95% and the IC50 (BRG-1) was under 100 nM. For the same compound, the “BRG1 Max % Inhibition” value (BRG-1; Table 6) was over 95%.

With CN(C)S(=O)(=O)c1cccc(C(=O)NCC(=O)Nc2nc(-c3ccccc3Br)cs2)c1 [Compound 18, N-[2-[[4-(2-bromophenyl)thiazol-2-yl]amino]-2-oxo-ethyl]-3-(dimethylsulfamoyl)benzamide] the IC50 (BRM) was over 10000 nM, the “BRM Max % Inhibition” value (BRM; Table 5) was over 80% and the IC50 (BRG-1) was over 10000 nM. For the same compound, the “BRG1 Max % Inhibition” value (BRG-1; Table 5) was over 60%.

With COC(=O)c1cc(-c2cccc(-c3csc(NC(=O)CNC(=O)c4ccc(N)cc4)n3)c2)ccn1 [Compound 181, methyl 4-(3-(2-(2-(4-aminobenzamido)acetamido)thiazol-4-yl)phenyl)picolinate] the IC50 (BRM) was under 100 nM, the “BRM Max % Inhibition” value (BRM; Table 6) was over 95% and the IC50 (BRG-1) was under 100 nM. The “BRG1 Max % Inhibition” value (BRG-1; Table 6) was over 95%.
